Measurements published in US9458145B2, “Benzimidazole derivatives as bromodomain inhibitors” (Gilead Sciences, Inc., priority 2013, dated 2016).
Read-outs that look alike come from different tables or passages of the source. Each block holds one compound with its values, some of them ahead of it.

Columns and labels:
[1] = target: BRD4-2 (Homo sapiens (Human), UniProt O60885); test: BRD4-2 Ligand KI assay (TR-FRET, Cy5 labeled ligand displacement); assay type: binding
Experimental: (§1) BRD4-1 Ligand KI and BRD4-2 Ligand KI Assays
(§2) Binding of the two tandem bromodomains, BRD4-I and BRD4-2, to a Cy5 labeled probe/ligand (Compound 1020-501) were measured using a homogeneous time resolved fluorescence resonance energy transfer (TR-FRET) assay.
(§3) The labeled ligand specifically binds BRD4-1 and BRD4-2 and can be displaced by a small molecule inhibitor that shares a similar or overlapping binding site. BRD4-I and BRD4-2 were expressed and purified from Escherichia coli as N-terminal His6, tagged proteins. A Eu-cryptate labeled anti-His antibody (Perkin Elmer) was used to specifically bind BRD4. […] Assays were performed in 50 mM Hepes (pH 7.5), 150 mM NaCl, 0.1 mg/ml BSA, 0.01% (v/v) Brij, 0.5% (v/v) DMSO and 10 nM labeled ligand at the following concentrations for each BRD4 isoform: 2 nM BRD4-1 and 0.5 nM BRD4-2. After an assay reaction time of 60 minutes at 25° C., binding was measured with 2 nM Eu-cryptate labeled anti-His antibody. TR-FRET signal was detected on an Envision plate reader (Ex: 320 nm; Em: 615/665 nm; 100 μs delay and 200 μs read window). […] All IC50 values represent geometric mean values of a minimum of four determinations. The IC50 values were converted to Ki values (dissociation constant for BRD4-inhibitor complex) using the Cheng and Prusoff equation for a competitive inhibitor mode of action. These assays generally produced results within 3-fold of the reported mean.

[2] = target: BRD4-1 (Homo sapiens (Human), UniProt O60885); test: BRD4-1 Ligand KI assay (TR-FRET, Cy5 labeled ligand displacement); assay type: binding
Experimental: as §1, §2, §3

[3] = test system: MT-4 cells; test: MT-4 proliferation assay; assay type: cell-based, human; conditions: Homo sapiens, MT4, 120 h; Table 1; 5 days, Cell Titer Glo; method text calls it EC50; read-out: MT4 Assay, (IC50)
Experimental: MT-4 Proliferation Assay:
Compounds were tested in a standardized high-throughput 384-well assay format. Each compound was serially diluted 3-fold in 100% DMSO in polypropylene 384-well plates using a Biomek FX Workstation, and 0.4 μL compound added to an assay plate containing 40 μL RPMI media. Compounds were arranged in a horizontal pattern, with 10 concentrations per compound, and 8 compounds added per plate. Due to low DMSO tolerability, the final DMSO concentration never exceeded 0.5% (v/v). Each assay plate contained 10 μM Puromycin and 0.5% DMSO in RPMI-1640 as positive and negative controls respectively. MT-4 cells (HTLV-1 transformed, human T lymphoblastoid cells, NIH Aids Reagent program) were added in volumes of 35 μL per well and 2,000 cells per well using a Biotek uFlow Workstation (Biotek, Winooski, Vt.), and the plates subsequently incubated for 5 days at 37° C. in an incubator set at 5% CO2 and 90% humidity.
After 5 days, 22 μL Cell Titer Glo (Promega) was added to the assay plates with a Biotek uFlow Workstation. Plates were subsequently placed on a Perkin Elmer Envision Plate Reader for 5 minutes before the luminescence signal was read.

[4] = 0.5 nM BRD4-2, 10 nM labeled ligand, IC50 converted to Ki by Cheng and Prusoff
[5] = 2 nM BRD4-1, 10 nM labeled ligand, IC50 converted to Ki by Cheng and Prusoff

IC50 [1]: 6 nM | IC50 [2]: 5.9 nM
Compound: Cc1noc(C)c1-c1cc(C(O)(c2ccccn2)c2ncccn2)c2nc(C3CC3)[nH]c2c1 (racemic) [Compound 1020-239, (R) and (S)-(2-cyclopropyl-6-(3,5-dimethylisoxazol-4-yl)-1H-benzo[d]imidazol-4-yl)(pyridin-2-yl)(pyrimidin-2-yl)methanol]

Compound: Cc1noc(C)c1-c1cc(C(O)(c2cccnn2)C2CCCO2)c2nc(C3CC3)[nH]c2c1 (single isomer, unassigned) [Compound 1020-289, (2-cyclopropyl-6-(3,5-dimethylisoxazol-4-yl)-1H-benzo[d]imidazol-4-yl)(pyridazin-3-yl)(tetrahydrofuran-2-yl)methanol]
IC50 [1, 4]: 2 nM | IC50 [2, 5]: 2 nM

IC50 [1, 4]: 3.6 nM | IC50 [2, 5]: 5.4 nM
Compound: Cc1noc(C)c1-c1cc(C(O)(c2cccnn2)C2CCC(C)(C)O2)c2nc(C3CC3)[nH]c2c1 (single isomer, unassigned) [Compound 1020-298, (2-cyclopropyl-6-(3,5-dimethylisoxazol-4-yl)-1H-benzo[d]imidazol-4-yl)(5,5-dimethyltetrahydrofuran-2-yl)(pyridazin-3-yl)methanol]

Compound: Cc1noc(C)c1-c1cc(N2C(=O)CCC2C)c2nc(C3CC3)[nH]c2c1 (stereo not shown) [Compound 1020-136, 1-(2-Cyclopropyl-6-(3,5-dimethylisoxazol-4-yl)-1H-benzo[d]imidazol-4-yl)-5-methylpyrrolidin-2-one]
IC50 [3]: 335 nM

Compound: CCC1CCC(=O)N1c1cc(-c2c(C)noc2C)cc2[nH]c(C3CC3)nc12 (stereo not shown) [Compound 1020-137, 1-(2-Cyclopropyl-6-(3,5-dimethylisoxazol-4-yl)-1H-benzo[d]imidazol-4-yl)-5-ethylpyrrolidin-2-one]
IC50 [3]: 113 nM

Compound: Cc1noc(C)c1-c1cc(S(=O)(=O)NC2CCCC2)c2nc(Cc3ccccc3)[nH]c2c1 [Compound 1020-141, 2-Benzyl-N-cyclopentyl-6-(3,5-dimethylisoxazol-4-yl)-1H-benzo[d]imidazole-4-sulfonamide]
IC50 [3]: 887 nM

Compound: Cc1noc(C)c1-c1cc(S(=O)(=O)NC2CCCC2)c2nc(NCC(F)(F)F)[nH]c2c1 [Compound 1020-148]
IC50 [3]: 495 nM
